Data: US9999614B2, “Combination for the prophylaxis and treatment of behavioural, mental, and cognitive disorders” (LTD “VALENTA-INTELLEKT”, priority 2012, dated 2018)

Test system: amnesia in mice, as caused by scopolamine
Experiment: CPAR, model of amnesia caused by scopolamine
Format: in vivo
Settings: scopolamine 1 mg/kg i.p.
Protocol: For this, the active substances Melatonin 3 mg/Memantin 10 mg, Melatonin 5 mg/Memantin 20 mg, Melatonin 10 mg/Memantin 20 mg were taken, and doses recommended for human beings were converted into doses adapted for mice according to the formula “(active substance/70(average weight of a human being))×7”. Then the compositions were dissolved in 5 mL of the solution and, according to the given formula, introduced to animals intraperitoneally once a day for 5 days.
The CPAR test is the main model for evaluating substance influences on formation and replication of short-time memory in a normal condition and in an abnormal condition, i.e., induced amnesia. The CPAR is the most informative method among the methods that are used today for evaluating efficiency of substances with influence on the CNS of mammals (see, “Manual for Experimental (Pre-Clinical) Studies of New Pharmacological Substances”, 2000). The CPAR (conditioned passive avoidance reflex in a dark, light chamber) was taught to the mice on the basis of electrodermal response according to the method proposed by Cumin et al. (1982) with due regard to the recommendations given by Mondadori et al. (1990). The installation for mice, as produced by Lafayette Instrument Co., USA, was a black chamber with the electrode floor and a white plastic platform that was arranged on the floor in the center of the chamber. The mice, one by one, were put onto the plastic platform. The animals went/jumped down onto the electrode floor where they received an electric current shock, i.e., punishment. Electric current was supplied after the time when an animal stood on the floor with all its four legs. The natural response of the animals is to go back to the current-free or safe platform. […] Tests for memorizing CPAR were conducted in successive time intervals after amnesic action. In a case where an animal went/jumped down onto the platform within 1 minute, it was recorded as having retrograde amnesia of the passive avoidance skill. The compositions were studied in comparison with Melatonin 5 mg (mono-use) and Memantin 10 mg (mono-use), according to the above formula for adapting to animal models.
The compositions under study were dissolved in 5 mL of the solution and, according to the above formula, introduced to the animals intraperitoneally, once a day for 5 days.

[1] = 1 day after teaching, Melatonin 5 mg, Memantin 10 mg mono-use

## CN1[C@@H]2C[C@@H](OC(=O)[C@H](CO)c3ccccc3)C[C@H]1[C@@H]1O[C@@H]12 [Scopolamine]
[1]
  Latent time of entering into the dark chamber: 72.3 ± 25.6 s
  Number of mice not entered into the dark chamber, %: 25%
3 days after teaching, Melatonin 5 mg, Memantin 10 mg mono-use
  Number of mice not entered into the dark chamber, %: 33.3%
7 days after teaching, Melatonin 5 mg, Memantin 10 mg mono-use
  Number of mice not entered into the dark chamber, %: 41.6%
10 days after teaching, Melatonin 5 mg, Memantin 10 mg mono-use
  Number of mice not entered into the dark chamber, %: 50%
In 24 hours, p<0.001
  CPAR amnesia observed, % of the animals: 90%
Agents i.p. once a day for 5 days, Melatonin 5 mg, Memantin 10 mg mono-use
  Number of mice taught to CPAR (%): 58.3%
